Columns and labels:
[1] = tested on: Huh-7 (hepatocellular carcinoma); assay: CCK-8 cell viability / IC50, Huh-7; type: cell-based, human; conditions: 72 h; for viability at 50 µM / IC50: Homo sapiens, Huh-7; for viability at 50 µM / Activity against Huh-7 cells (in words): CCK-8, 50 μM; for IC50: CCK-8 dose-response
Method: (§1) To assess the cytotoxic potential of the newly synthesized compounds c1–c20, a panel of human tumor cell lines—including Huh-7 (hepatocellular carcinoma), MCF-7 (breast cancer), and A549 (lung cancer)—was treated with each compound at a concentration of 50 μM for 72 h. Cell viability and cytotoxicity were evaluated using the CCK-8 assay.
(§2) Cells were cultured in DMEM or RPMI 1640 medium with 10% FBS and 1% penicillin/streptomycin at 37 °C and 5% CO2. A CCK-8 assay was performed with several human cancer cell lines, including A549, Huh-7, MCF-7, HCT-116, and SKOV3, according to the instructions. Cells were plated at a density of 1,000–3,000 cells per well in a 96-well plate. After 24-h incubation, cells were treated with 40 μM compounds for 48 h or 50 μM compounds for 72 h. Cell viability was measured by adding 10 μL per well of CCK-8 reagent, which was dissolved in the cell culture medium, for 1 hour. Absorbance was taken at 450 nm using a microplate reader. The IC50 values of the compounds were further determined. Cells were seeded in a 96-well plate at a density of 1 × 10^3 cells/well. After adhering overnight, cells treated with […] concentrations (10 μM, 20 μM, 40 µM, or 80 μM) were used to draw the dose–response curve, and IC50 values were calculated by GraphPad Prism software. The CCK-8 assay was performed in triplicate, and each experiment was repeated at least three times. The results were expressed as mean ± SEM, and P < 0.05 was considered statistically significant.

[2] = CCK-8 cell viability, L02; type: cell-based; conditions: human, L02 normal liver cells
A549 (lung cancer) = assay: CCK-8 cell viability, A549; type: cell-based; conditions: Homo sapiens, 72 h
Method: as §1, §2

MCF-7 (breast cancer) = assay: CCK-8 cell viability, MCF-7; type: cell-based; conditions: Homo sapiens, MCF7, 72 h
Method: as §1, §2

[3] = tested on: HCT116 colon cancer cells; set-up: method as in Mohammed et al., 2022; conditions: ref Mohammed et al., 2022; read-out: Cytotoxicity against HCT116, IC50; cited from earlier work

| SMILES | IC50 [1] | viability at 50 µM [1] | viability at 72 h, 50 µM [2] | viability at 50 µM (A549 (lung cancer)) | viability at 50 µM (MCF-7 (breast cancer)) | Activity against Huh-7 cells (in words) [1] | IC50 [3] |
| --- | --- | --- | --- | --- | --- | --- | --- |
| O=C1COc2cc(NC(=O)c3cccc(-c4cn(Cc5ccccc5F)nn4)c3)ccc2N1 [compound c3, 3-(1-(2-fluorobenzyl)-1H-1,2,3-triazol-4-yl)-N-(3-oxo-3,4-dihydro-2H-benzo[b][1,4]oxazin-7-yl)benzamide] | 43.41 ± 0.08 µM | 12.1 ± 0.58% | 101 ± 3.04% | 92.2 ± 3.87% | 108.3 ± 0.68% |  |  |
| O=C1COc2cc(NC(=O)c3cccc(-c4cn(Cc5c(F)cccc5Cl)nn4)c3)ccc2N1 [compound c15, 3-(1-(2-chloro-6-fluorobenzyl)-1H-1,2,3-triazol-4-yl)-N-(3-oxo-3,4-dihydro-2H-benzo[b][1,4]oxazin-7-yl)benzamide] |  | 75.8 ± 2.97% | 113.7 ± 1.08% | 86.5 ± 2.25% | 84.6 ± 1.32% | limited activity |  |
| O=C1COc2cc(NC(=O)c3cccc(-c4cn(Cc5cccc(Cl)c5)nn4)c3)ccc2N1 [compound c2, 3-(1-(3-chlorobenzyl)-1H-1,2,3-triazol-4-yl)-N-(3-oxo-3,4-dihydro-2H-benzo[b][1,4]oxazin-7-yl)benzamide] | 33.4 ± 0.8 µM | 17.5 ± 1.15% | 103 ± 2.36% | 95.6 ± 2.98% | 103 ± 1.63% |  |  |
| O=c1[nH]cc(F)c(=O)[nH]1 [5-fluorouracil, reference compound] | 21 ± 6.37 µM |  |  |  |  |  |  |
| N#Cc1ccccc1Cn1cc(-c2cccc(C(=O)Nc3ccc4c(c3)OCC(=O)N4)c2)nn1 [compound c7, 3-(1-(2-cyanobenzyl)-1H-1,2,3-triazol-4-yl)-N-(3-oxo-3,4-dihydro-2H-benzo[b][1,4]oxazin-7-yl)benzamide] |  | 89.1 ± 3.02% | 101 ± 3.14% | 87.7 ± 6.4% | 89.2 ± 3.16% | limited activity |  |
| COc1cc(/C=C/C(=O)c2ccc(-n3cc(CN4CCN(c5cc6c(cc5F)c(=O)c(C(=O)O)cn6C5CC5)CC4)nn3)cc2)cc(OC)c1OC [compound 4j] |  |  |  |  |  |  | 2.53 µM |
| O=C1COc2cc(NC(=O)c3cccc(-c4cn(Cc5ccc(I)cc5)nn4)c3)ccc2N1 [compound c4, 3-(1-(4-iodobenzyl)-1H-1,2,3-triazol-4-yl)-N-(3-oxo-3,4-dihydro-2H-benzo[b][1,4]oxazin-7-yl)benzamide] | 33.21 ± 0.11 µM | 21.4 ± 4.91% | 115.2 ± 0.81% | 94 ± 1.88% | 95.9 ± 2.14% |  |  |
| COc1cccc2c1C(=O)c1c(O)c3c(c(O)c1C2=O)C[C@@](O)(C(=O)CO)C[C@@H]3O[C@H]1C[C@H](N)[C@H](O)[C@H](C)O1 [doxorubicin] |  |  |  |  |  |  | 1.22 µM |
| N#Cc1ccc(F)cc1Cn1cc(-c2cccc(C(=O)Nc3ccc4c(c3)OCC(=O)N4)c2)nn1 [compound c11, 3-(1-(2-cyano-5-fluorobenzyl)-1H-1,2,3-triazol-4-yl)-N-(3-oxo-3,4-dihydro-2H-benzo[b][1,4]oxazin-7-yl)benzamide] |  | 98 ± 1.22% | 111 ± 2.9% | 85.4 ± 2.84% | 92.96 ± 0.64% | limited activity |  |
| O=C1COc2cc(NC(=O)c3cccc(-c4cn(Cc5c(Cl)cccc5Cl)nn4)c3)ccc2N1 [compound c1, 3-(1-(2,6-dichlorobenzyl)-1H-1,2,3-triazol-4-yl)-N-(3-oxo-3,4-dihydro-2H-benzo[b][1,4]oxazin-7-yl)benzamide] |  | 83.49 ± 0.78% | 84.1 ± 1.2% | 97.4 ± 3.35% | 110 ± 3.84% | limited activity |  |
| O=C1COc2cc(NC(=O)c3cccc(-c4cn(Cc5ccccc5Br)nn4)c3)ccc2N1 [compound c12, 3-(1-(2-bromobenzyl)-1H-1,2,3-triazol-4-yl)-N-(3-oxo-3,4-dihydro-2H-benzo[b][1,4]oxazin-7-yl)benzamide] |  | 86.1 ± 1.69% | 105 ± 2.71% | 87.7 ± 3.88% | 87.15 ± 0.55% | limited activity |  |

Continued, in another order:

| IC50 [1] | SMILES | viability at 50 µM [1] | viability at 72 h, 50 µM [2] | viability at 50 µM (A549 (lung cancer)) | viability at 50 µM (MCF-7 (breast cancer)) | Activity against Huh-7 cells (in words) [1] | IC50 [3] |
| --- | --- | --- | --- | --- | --- | --- | --- |
| 45.9 ± 0.5 µM | Cc1ccccc1Cn1cc(-c2cccc(C(=O)Nc3ccc4c(c3)OCC(=O)N4)c2)nn1 [compound c20, 3-(1-(2-methylbenzyl)-1H-1,2,3-triazol-4-yl)-N-(3-oxo-3,4-dihydro-2H-benzo[b][1,4]oxazin-7-yl)benzamide] | 23.6 ± 0.25% | 119.1 ± 0.57% | 97.85 ± 0.92% | 112 ± 4.59% |  |  |
| 36.19 ± 0.09 µM | O=C1COc2cc(NC(=O)c3cccc(-c4cn(Cc5cccc(I)c5)nn4)c3)ccc2N1 [compound c19, 3-(1-(3-iodobenzyl)-1H-1,2,3-triazol-4-yl)-N-(3-oxo-3,4-dihydro-2H-benzo[b][1,4]oxazin-7-yl)benzamide] | 28.5 ± 3.64% | 103.4 ± 0.62% | 80.5 ± 3.81% | 97.2 ± 2.06% |  |  |
| 38.48 ± 0.24 µM | O=C1COc2cc(NC(=O)c3cccc(-c4cn(Cc5cccc(C(F)(F)F)c5)nn4)c3)ccc2N1 [compound c8, N-(3-oxo-3,4-dihydro-2H-benzo[b][1,4]oxazin-7-yl)-3-(1-(3-(trifluoromethyl)benzyl)-1H-1,2,3-triazol-4-yl)benzamide] | 13 ± 0.72% | 103 ± 3.1% | 86.1 ± 5.46% | 101 ± 4.5% |  |  |
| 43.1 ± 2.43 µM | O=C1COc2cc(NC(=O)c3cccc(-c4cn(Cc5ccc(F)c(Cl)c5)nn4)c3)ccc2N1 [compound c9, 3-(1-(3-chloro-4-fluorobenzyl)-1H-1,2,3-triazol-4-yl)-N-(3-oxo-3,4-dihydro-2H-benzo[b][1,4]oxazin-7-yl)benzamide] | 18.8 ± 0.56% | 103 ± 3.98% | 86.2 ± 4.4% | 110 ± 2.58% |  |  |
| 35.1 ± 1.84 µM | O=C1COc2cc(NC(=O)c3cccc(-c4cn(Cc5cccc(Br)c5)nn4)c3)ccc2N1 [compound c17, 3-(1-(3-bromobenzyl)-1H-1,2,3-triazol-4-yl)-N-(3-oxo-3,4-dihydro-2H-benzo[b][1,4]oxazin-7-yl)benzamide] | 19.2 ± 1.88% | 111.7 ± 0.92% | 71.3 ± 2.9% | 90.41 ± 0.51% |  |  |
| > 50 µM | O=C1COc2cc(NC(=O)c3cccc(-c4cn(Cc5c(F)cccc5F)nn4)c3)ccc2N1 [compound c10, 3-(1-(2,6-difluorobenzyl)-1H-1,2,3-triazol-4-yl)-N-(3-oxo-3,4-dihydro-2H-benzo[b][1,4]oxazin-7-yl)benzamide] | 24.9 ± 0.39% | 68.5 ± 2.04% | 61.1 ± 3.58% | 81.6 ± 1.46% |  |  |
| > 50 µM | O=C1COc2cc(NC(=O)c3cccc(-c4cn(Cc5ccc(Br)cc5F)nn4)c3)ccc2N1 [compound c13, 3-(1-(4-bromo-2-fluorobenzyl)-1H-1,2,3-triazol-4-yl)-N-(3-oxo-3,4-dihydro-2H-benzo[b][1,4]oxazin-7-yl)benzamide] | 17.7 ± 1.58% | 115 ± 1.35% | 78.3 ± 2.72% | 98.9 ± 2.03% |  |  |
| > 50 µM | Cc1cc(C)cc(Cn2cc(-c3cccc(C(=O)Nc4ccc5c(c4)OCC(=O)N5)c3)nn2)c1 [compound c6, 3-(1-(3,5-dimethylbenzyl)-1H-1,2,3-triazol-4-yl)-N-(3-oxo-3,4-dihydro-2H-benzo[b][1,4]oxazin-7-yl)benzamide] | 25.6 ± 1.32% | 99.7 ± 2.5% | 81.6 ± 5.09% | 84.8 ± 3.5% |  |  |
